Test results from patent US7868204B2, “Inhibitors of histone deacetylase” (MethylGene Inc., priority 2001, dated 2011).
Like-named read-outs stand apart in the source and are kept apart here. One block for each molecule: values may come before it.

Columns and labels:
[1] = system: HCT116 cells; experiment: MTT assay; assay type: cell-based; conditions: Homo sapiens
How it was run: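 Read-out: MTT (0.5 mg/ml final, 4 h) after solubilization in 50% DMF/20% SDS, pH 4.7, with OD translated into cell number via the line's growth curve. Compound treatment lasted 72 h at 37 °C in 5% CO2, starting a day after plating.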

[2] = biological target: HDAC-1 (Homo sapiens, UniProt Q13547); experiment: Human HDAC-1 enzyme inhibition, Assay 2 (Boc-Lys(Ac)-AMC, Fluor-de-Lys fluorescence; compounds 604-617); assay type: biochemical; conditions: read-out: HDAC1 IC50
Description: Assay 2. The following protocol was also used to assay the compounds of the invention. In the assay, the buffer used was 25 mM HEPES, pH 8.0, 137 mM NaCl, 2.7 mM […], 1 mM MgCl2 and the substrate was Boc-Lys(Ac)-AMC in a 50 mM stock solution in DMSO. The enzyme stock solution was 4.08 μg/mL in buffer. The compounds were pre-incubated (2 μl in DMSO diluted to 13 μl in buffer for transfer to assay plate) with enzyme (20 μl of 4.08 μg/ml) for 10 minutes at room temperature (35 μl pre-incubation volume). The mixture was pre-incubated for 5 minutes at room temperature. The reaction was started by bringing the temperature to 37° C. and adding […] substrate. Total reaction volume was 50 μl. […] A plate was incubated in the dark for 10 minutes at room temperature before reading (λEx=360 nm, λEm=470 nm, Cutoff filter at 435 nm). Assay 2 was used to measure HDAC activity of compounds 604-617 (Table 5). HDAC activity of the remaining compounds was measured by assay 1.

[3] = system: acetylated histone H-4 in T24 human bladder cancer cells; experiment: Histone H4 acetylation in whole cells by immunoblots; assay type: cell-based; conditions: 16 h
How it was run: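 Acetylated histone H4 was quantified by densitometry of ECL-developed immunoblots, probed with a polyclonal antibody, of […] total histone from T24 cultures exposed 16 h to HDAC inhibitors.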

[4] = biological target: T1, cloned recombinant human HDAC-1 (Homo sapiens, UniProt Q13547); experiment: Human HDAC-1 enzyme inhibition, Assay 1 ([3H]-acetylated histone substrate, scintillation counting); assay type: biochemical
T1 construct: made in house; host or cells: Baculovirus insect cell expression system
How it was run: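 Activity read as [3H]-acetic acid liberated from labeled substrate, ethyl acetate-extracted and scintillation-counted. Compounds preincubated 30 min at 4° C. with baculovirus-expressed, purified human HDAC-1. Dose-response curves give IC50 as concentration producing fifty percent of maximal inhibition.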

[5] = HCT-116, 72 h, Table 5F, HCT116 cells, 72 hours
[6] = T-24, Table 5F, read-out: H4 Ac (T24) EC50
[7] = Table 5F, read-out: Human HDAC-1 IC50
[8] = HCT-116, 72 h, Table 5E, HCT116 cells, 72 hours
[9] = T-24, Table 5E, read-out: H4 Ac (T24) EC50
[10] = Table 5E, read-out: Human HDAC-1 IC50
[11] = HCT-116, 72 h, Table 5b, HCT116 cells, 72 hours
[12] = T-24, Table 5b, read-out: H4Ac (T24) EC50
[13] = Table 5b, read-out: Human HDAC-1 IC50

T1 sequence (Q13547 whole entry): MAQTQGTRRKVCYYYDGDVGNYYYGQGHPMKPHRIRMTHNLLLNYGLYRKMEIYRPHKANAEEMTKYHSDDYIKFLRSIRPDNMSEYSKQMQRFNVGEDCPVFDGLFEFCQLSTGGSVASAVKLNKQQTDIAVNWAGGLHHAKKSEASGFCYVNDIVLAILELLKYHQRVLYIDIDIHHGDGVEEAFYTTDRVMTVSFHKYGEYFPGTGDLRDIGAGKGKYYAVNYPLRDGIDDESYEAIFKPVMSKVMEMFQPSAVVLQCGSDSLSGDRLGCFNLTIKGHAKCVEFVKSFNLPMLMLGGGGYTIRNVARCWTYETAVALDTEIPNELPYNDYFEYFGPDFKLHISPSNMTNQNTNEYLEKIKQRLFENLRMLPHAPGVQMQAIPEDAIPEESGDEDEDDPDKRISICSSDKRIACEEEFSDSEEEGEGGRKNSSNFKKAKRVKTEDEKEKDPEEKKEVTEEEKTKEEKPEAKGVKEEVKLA
Chain of HDAC-1 (Q13547 whole entry): as above

SMILES: COc1ccc2nc(NCc3ccc(C(=O)Nc4ccccc4N)cc3)sc2c1 [Cpd 233]
- IC50 [1, 5]: 300 nM
- EC50 [3, 6]: 1000 nM
- IC50 [4, 7]: 900 nM

SMILES: Nc1ccccc1NC(=O)c1ccc(CN2C(=O)c3ccccc3C2=O)cc1 [Cpd 149, N-(2-Amino-phenyl)-4-(1,3-dioxo-1,3-dihydro-isoindol-2-ylmethyl)-benzamide]
- IC50 [1, 8]: 5000 nM
- EC50 [3, 9]: 5000 nM
- IC50 [4, 10]: 1000 nM

SMILES: Nc1ccccc1NC(=O)c1ccc(CNc2cccc(F)n2)cc1 [Cpd 349]
- IC50 [1, 5]: 1000 nM
- EC50 [3, 6]: 3000 nM
- IC50 [4, 7]: 13000 nM

SMILES: CCn1c(=O)n(Cc2ccc(C(=O)Nc3ccccc3N)cc2)c(=O)c2cc(Br)ccc21 [Cpd 344, N-(2-Amino-phenyl)-4-(6-bromo-1-ethyl-2,4-dioxo-1,4-dihydro-2H-quinazolin-3-ylmethyl)-benzamide]
- IC50 [1, 5]: 200 nM
- EC50 [3, 6]: 1000 nM
- IC50 [4, 7]: 500 nM

SMILES: COc1ccc(N(Cc2ccc(C(=O)Nc3ccccc3N)cc2)C(=O)Nc2ccccc2)cc1OC [Cpd 373, N-(2-Amino-phenyl)-4-[1-(3,4-dimethoxy-phenyl)-3-phenyl-ureidomethyl]-benzamide]
- IC50 [1, 5]: 400 nM
- EC50 [3, 6]: 1000 nM
- IC50 [4, 7]: 4000 nM

SMILES: Nc1ccccc1NC(=O)c1ccc(Cn2cnc3ccc(Cl)cc3c2=O)cc1 [Cpd 336]
- IC50 [1, 5]: 400 nM
- EC50 [3, 6]: < 1000 nM
- IC50 [4, 7]: 1000 nM

SMILES: Nc1ccccc1NC(=O)c1ccc(CNc2ncnc(NCCc3ccccc3)n2)cc1 [Cpd 210]
- IC50 [1, 11]: 900 nM
- EC50 [3, 12]: 1000 nM
- IC50 [4, 13]: 3000 nM

SMILES: Nc1ccccc1NC(=O)c1ccc(CNc2nc(-c3ccc(Cl)cc3)cs2)cc1 [Cpd 321, N-(2-Amino-phenyl)-4-{[4-(4-chloro-phenyl)-thiazol-2-ylamino]-methyl}-benzamide]
- IC50 [1, 5]: 300 nM
- EC50 [3, 6]: 5000 nM
- IC50 [4, 7]: 500 nM

SMILES: Nc1ccccc1NC(=O)c1ccc(CNc2ncccn2)cc1 [Cpd 377]
- IC50 [1, 5]: 2000 nM
- EC50 [3, 6]: 3000 nM
- IC50 [4, 7]: 4000 nM

SMILES: Nc1ccccc1NC(=O)c1ccc(CSc2ccc3ccccc3n2)cc1 [Cpd 131, N-(2-Amino-phenyl)-4-(quinolin-2-ylsulfanylmethyl)-benzamide]
- IC50 [1, 8]: 900 nM
- EC50 [3, 9]: 2000 nM
- IC50 [4, 10]: 300 nM

SMILES: Nc1ccccc1NC(=O)c1ccc(-c2cccc(CNCc3ccccn3)c2)cc1 [Cpd 187]
- IC50 [1, 5]: 5000 nM
- EC50 [3, 6]: 2000 nM
- IC50 [4, 7]: 2000 nM

SMILES: CN(Cc1ccc(C(=O)Nc2ccccc2N)cc1)c1nc(N)nc(NC2Cc3ccccc3C2)n1 [Cpd 216]
- IC50 [1, 11]: 400 nM
- EC50 [3, 12]: 2000 nM
- IC50 [4, 13]: 500 nM

SMILES: Nc1ccccc1NC(=O)/C=C/c1ccc(NCc2cccnc2)nc1 [Cpd 90, N-(2-aminophenyl)-3-{6-[(pyridin-3-ylmethyl)-amino]-pyridin-3-yl}-acrylamide]
- IC50 ([1]; HCT-116, 72 h, Table 5c, HCT116 cells, 72 hours): 5000 nM
- EC50 ([3]; T-24, Table 5c, read-out: H4Ac (T24) EC50): 5000 nM
- IC50 ([4]; Table 5c, read-out: Human HDAC-1 IC50): 10000 nM

SMILES: Nc1ccccc1NC(=O)c1ccc(CNc2nc(NC3CC3)nc(NC3Cc4ccccc4C3)n2)cc1 [Cpd 19]
- IC50 ([1]; HCT-116, 72 h, Table 5a, HCT116 cells, 72 hours): 1000 nM
- EC50 ([3]; T-24, Table 5a, read-out: H4Ac (T24) EC50): 1000 nM
- IC50 ([4]; Table 5a, read-out: Human HDAC-1 IC50): 900 nM

SMILES: COc1nc(NCc2ccc(C(=O)Nc3ccccc3N)cc2)nc(OC)n1 [Cpd 212]
- IC50 [1, 11]: 1000 nM
- EC50 [3, 12]: 1000 nM
- IC50 [4, 13]: 3000 nM

SMILES: Nc1ccccc1NC(=O)c1ccc(Cn2cnc3ccsc3c2=O)cc1 [Cpd 257]
- IC50 [1, 5]: 400 nM
- EC50 [3, 6]: 1000 nM
- IC50 [4, 7]: 400 nM

Other lines, results leading:

- IC50 ([1]; HCT-116, HCT116 cells): 750 nM
- IC50 [2]: 266 nM
SMILES: Nc1ccccc1NC(=O)c1ccc(N2CC[C@H](Oc3ccccc3)C2)cc1 [compound 610, (S)-N-(2-aminophenyl)-4-(3-phenoxypyrrolidin-1-yl)benzamide]

- IC50 ([1]; HCT-116, HCT116 cells): 4000 nM
- IC50 [2]: 1380 nM
SMILES: Nc1ccccc1NC(=O)c1ccc(N2CC[C@H](Oc3ccc(Oc4ccccc4)cc3)C2)cc1 [compound 615, (S)-N-(2-aminophenyl)-4-(3-(4-phenoxyphenoxy)pyrrolidin-1-yl)benzamide]

- IC50 ([1]; HCT-116, HCT116 cells): 600 nM
- IC50 [2]: 97.6 nM
SMILES: COC(=O)c1ccc(O[C@H]2CCN(c3ccc(C(=O)Nc4ccccc4N)cc3)C2)cc1 [compound 611, (S)-methyl-4-(1-(4-(2-aminophenylcarbamoyl)phenyl)pyrrolidin-3-yloxy)benzoate]

- IC50 ([1]; HCT-116, HCT116 cells): 1000 nM
- IC50 [2]: 639 nM
SMILES: Nc1ccccc1NC(=O)c1ccc(N2CC[C@@H](Oc3cccnc3)C2)cc1 [compound 607, (R)-N-(2-aminophenyl)-4-(3-(pyridin-3-yloxy)pyrrolidin-1-yl)benzamide]

- IC50 ([1]; HCT-116, HCT116 cells): 700 nM
- IC50 [2]: 107 nM
SMILES: Nc1ccccc1NC(=O)c1ccc(N2CC[C@H](Oc3ccc([N+](=O)[O-])cc3)C2)cc1 [compound 616, (S)-N-(2-aminophenyl)-4-(3-(4-nitrophenoxy)pyrrolidin-1-yl)benzamide]

- IC50 ([1]; HCT-116, HCT116 cells): 39000 nM
- IC50 [2]: 815 nM
SMILES: Nc1ccccc1NC(=O)c1ccc(N2CC[C@H](Oc3ccc(C(=O)O)cc3)C2)cc1 [compound 612, (S)-4-(1-(4-(2-aminophenylcarbamoyl)phenyl)pyrrolidin-3-yloxy)benzoic acid]

- IC50 [1, 5]: 1000 nM
- EC50 [3, 6]: 1000 nM
- IC50 [4, 7]: 2000 nM
SMILES: COc1cc(Cl)cc(NCc2ccc(C(=O)Nc3ccccc3N)cc2)n1 [Cpd 387]

- IC50 ([1]; HCT-116, Table 5d, HCT116 cells, 72 hours): 400 nM
- EC50 ([3]; T-24, Table 5d, read-out: H4Ac(T24) EC50): 15000 nM
- IC50 ([4]; Table 5d, read-out: HDAC-1 IC50): 1000 nM
SMILES: CSc1ccc(NCc2ccc(/C=C/C(=O)Nc3ccccc3N)cc2)cc1 [Cpd 556, N-(2-Amino-phenyl)-3-{4-[(4-methylsulfanyl-phenylamino)-methyl]-phenyl}acrylamide]

- IC50 [1, 5]: 400 nM
- EC50 [3, 6]: 1000 nM
- IC50 [4, 7]: 14000 nM
SMILES: Nc1ccccc1NC(=O)c1ccc(CNc2ccc(N3CCOCC3)cc2)cc1 [Cpd 402, N-(2-Amino-phenyl)-4-[(4-morpholin-4-yl-phenylamino)-methyl]-benzamide]

- IC50 ([1]; HCT-116, HCT116 cells): 2000 nM
- IC50 [2]: 1220 nM
SMILES: Nc1ccccc1NC(=O)c1ccc(N2CC[C@@H](Nc3ccccc3)C2)cc1 [compound 609, (R)-N-(2-aminophenyl)-4-(3-(phenylamino)pyrrolidin-1-yl)benzamide]

- IC50 [1, 11]: 1000 nM
- EC50 [3, 12]: 1000 nM
- IC50 [4, 13]: 3000 nM
SMILES: COCCNc1nc(NCCc2ccccc2)nc(NCc2ccc(C(=O)Nc3ccccc3N)cc2)n1 [Cpd 474]

- IC50 [1, 5]: 600 nM
- EC50 [3, 6]: 5000 nM
- IC50 [4, 7]: 2000 nM
SMILES: Nc1ccccc1NC(=O)c1ccc(NCc2cccc(OC(F)(F)F)c2)cc1 [Cpd 425, N-(2-Amino-phenyl)-4-(3-trifluoromethoxy-benzylamino)-benzamide]

- IC50 [1, 5]: 900 nM
- EC50 [3, 6]: 3000 nM
- IC50 [4, 7]: 1000 nM
SMILES: Nc1ccccc1NC(=O)c1ccc(CSc2cccc3cccnc23)cc1 [Cpd 391, N-(2-Amino-phenyl)-4-(quinolin-8-ylsulfanylmethyl)-benzamide]
